# Results reported in the OPERA property sets (Mansouri et al. 2018).
# Settings: not given
Structure (SMILES),melting point [°C],boiling point [°C],log10 vapour pressure (mmHg),ready biodegradability,log10 Koc (L/kg),log10 Henry constant (atm·m³/mol),log10 Koa
N=C(N)N1CCc2ccccc2C1,279,–,–,–,–,–,–
O=C(CCCN1CCC(n2c(=S)[nH]c3ccccc32)CC1)c1ccc(F)cc1,202,–,–,–,–,–,–
Ic1cccc(I)c1I,116,–,–,–,–,–,–
c1ccc2c(c1)CCN2,–,229,–,–,–,–,–
c1ccc2ncncc2c1,48,241,–,–,–,–,–
COc1ccc(I)cc1,53,238,–,–,–,–,–
[Se]=C=[Se],-45.5,126,–,–,–,–,–
CCNC(=O)C(=O)NCC,175,–,–,–,–,–,–
CCCCCC(C)C(C)C (centres undefined),–,164,–,–,–,–,–
O=C(CCl)CCl,45,173,-0.202,–,–,–,–
CC1=CC(=O)C=C(C)C1=O,72.5,–,–,–,–,–,–
COc1ccccc1OC(=O)Oc1ccccc1OC,89,–,–,–,–,–,–
CCN(CC)CCOC(=O)C(O)(c1ccccc1)c1ccccc1,51,–,–,–,–,–,–
CCNC(C)=O,–,205,–,readily biodegradable,–,–,–
COc1nc(Cl)c(Cl)cc1Cl,–,–,–,–,2.96,–,–
NC[C@H](O)[C@@H](O)[C@@H](O)[C@H](O)CO,127,–,–,–,–,–,–
CC(=O)c1cc(C(C)C)ccc1C,–,250,–,–,–,–,–
CN(C)c1ccc(C(=N)c2ccc(N(C)C)cc2)cc1,136,330,–,not readily biodegradable,3.31,–,–
CCCCCI,-85.6,155,0.642,–,–,-1.71,–
CCOC(=O)c1cccc(Cl)c1O,21,270,–,–,–,–,–
Clc1ccc(Cl)c(Oc2ccccc2)c1Cl,–,–,-3.55,–,–,–,–
CC(C)CC(O)C(C)C (centres undefined),–,158,–,–,–,–,–
Cc1ccc(C(C)C)c(O)c1C(=O)O,127,–,–,–,–,–,–
C(COCCOCC1CO1)OCCOCC1CO1 (centres undefined),-13,–,–,–,–,–,–
CO/C=C(/C(=O)OC)c1ccccc1Oc1cc(Oc2ccccc2C#N)ncn1,116,–,-12.1,–,–,–,–

Structure (SMILES),melting point [°C],boiling point [°C],log10 vapour pressure (mmHg),ready biodegradability,log10 Koc (L/kg),log10 Henry constant (atm·m³/mol),log10 Koa
N#CC(C#N)=C(C#N)C#N,199,–,–,–,–,–,–
NS(=O)(=O)c1ccccc1[N+](=O)[O-],191,–,–,–,–,–,–
CCOC(=O)C(=O)c1ccccc1,–,256,–,–,–,–,–
CCC(=O)C(C)=O,–,108,–,–,–,–,–
COc1nccnc1CC(C)C,–,–,–,–,–,-4.31,–
C=C(C)Cn1c(N)cc(=O)n(C)c1=O,175,–,–,–,–,–,–
Cc1ccc(S(=O)(=O)F)cc1,41.5,–,–,–,–,–,–
COCCOC1=C(N2CC2)C(=O)C(OCCOC)=C(N2CC2)C1=O,80,–,–,–,–,–,–
O=C(Nc1cccc(N(CCO)CCO)c1)c1ccccc1,–,–,–,not readily biodegradable,–,–,–
O=Nc1ccccc1,68.5,–,–,–,–,–,–
NS(=O)(=O)c1cc(-c2nnn[nH]2)c(NCc2cccs2)cc1Cl,220,–,–,–,–,–,–
O=[N+]([O-])c1ccc2[nH]nnc2c1,217,–,–,–,–,–,–
Cc1ccc(CCc2ccc(C)cc2)cc1,85,–,–,–,–,–,–
CCCCOc1ccccc1,-19.4,210,-0.529,–,–,–,–
C[C@]12C=C(C=O)C(=O)C=C1CC[C@@H]1[C@@H]2[C@H](O)C[C@@]2(C)[C@H]1CC[C@]2(C)O,210,–,–,–,–,–,–
O=[N+]([O-])c1ccc(Nc2ccccc2)cc1,135,–,–,–,–,–,–
CC1(C)[C@@H](O)CC[C@]2(C)[C@H]3C(=O)C=C4[C@@H]5C[C@@](C)(C(=O)O)CC[C@]5(C)CC[C@@]4(C)[C@]3(C)CC[C@@H]12,296,–,–,–,–,–,–
Cc1cc(-c2ccc(N)c(C)c2)ccc1N,132,339,–,not readily biodegradable,–,–,–
O=[N+]([O-])c1ccc(Oc2ccc(Cl)cc2Cl)cc1,70,–,–,not readily biodegradable,4,–,–
Clc1ccc(Cl)c(-c2ccc(Cl)c(Cl)c2)c1,106,–,-4.39,–,4.86,-4,–
CCOc1cccc(N(CC)CC)c1,–,286,–,–,–,–,–
CC(C)OC(=O)[C@@H](C)N(C(=O)c1ccccc1)c1ccc(F)c(Cl)c1,–,–,-6.2,–,–,–,–
C=C1CC2CC1CC2(C)C (centres undefined),–,152,–,–,–,–,–
C[C@@H]1O[C@@H](O)[C@H](O)[C@H](O)[C@H]1O,140,–,–,–,–,–,–
CCCCCCCCCCCCCCO,39.5,289,-3.96,readily biodegradable,–,–,–

Structure (SMILES),melting point [°C],boiling point [°C],log10 vapour pressure (mmHg),ready biodegradability,log10 Koc (L/kg),log10 Henry constant (atm·m³/mol),log10 Koa
CC(=O)[C@@]1(O)[C@H](O)C[C@H]2[C@@H]3CCC4=CC(=O)CC[C@]4(C)[C@H]3CC[C@@]21C,225,–,–,–,–,–,–
O=C(Nc1ccccc1)Nc1ccccc1,239,262,-5.12,–,–,–,–
O=C(O)C1CC=CCC1C(=O)O (centres undefined),–,–,–,not readily biodegradable,–,–,–
CCCCCCCCCCCCCCCCCCOC(C)=O,34.5,–,–,–,–,–,–
O=C1CCCC(=O)O1,56.3,287,-2.52,–,–,–,–
c1ccc(Cc2ccc3ccccc3c2)cc1,58,350,–,–,–,–,–
CCCCOCc1ccco1,–,190,–,–,–,–,–
N#CCC(=O)c1ccccc1,80.5,–,–,–,–,–,–
COc1cc(Cl)c(Cl)c(Cl)c1OC,66,–,–,–,–,–,–
N#CCCCC#N,-29,286,-2.08,–,–,–,–
CC#CCCO,–,154,–,–,–,–,–
CCCCCCCCCCC(=O)CC,31,–,–,–,–,–,–
CC(C)CN(CC(C)C)CC(C)C,-21.8,192,–,–,–,–,–
COc1cc2c(cc1OC)[C@]1(O)C(=O)c3ccc4c(c3O[C@@H]1CO2)C=CC(C)(C)O4,198,–,–,–,–,–,–
COc1ccc(N)cc1,57.2,243,-1.52,readily biodegradable,1.93,-7.18,–
Cc1cc[nH]c(=O)c1,130,308,–,–,–,–,–
C=C[C@@]1(C)CC[C@H]2C(=CC[C@@H]3[C@]2(C)CCC[C@@]3(C)C(=O)O)C1,160,–,–,–,–,–,–
Cc1ccc(O)c(N)c1,136,–,–,–,–,–,–
Oc1ccccc1-c1nc2ccccc2o1,124,338,–,–,–,–,–
Nc1nc(=O)cc(Cl)[nH]1,262,–,–,–,–,–,–
C#CCCCO,–,154,–,–,–,–,–
CCCC(CC)CC(C)C (centres undefined),–,158,–,–,–,–,–
CC(C)(C)c1cc(-c2ccccc2)cc(C(C)(C)C)c1O,–,–,–,not readily biodegradable,–,–,–
CC(=O)C=Cc1ccco1,39.5,–,–,–,–,–,–
CC(C)OC(=O)C(O)(c1ccc(Br)cc1)c1ccc(Br)cc1,77,–,-7.09,–,–,–,–

Structure (SMILES),melting point [°C],boiling point [°C],log10 vapour pressure (mmHg),ready biodegradability,log10 Koc (L/kg),log10 Henry constant (atm·m³/mol),log10 Koa
CCN(C)N=O,–,170,–,–,–,–,–
S=C1SCCS1,35,307,–,–,–,–,–
Brc1cccc(-c2ccccc2)c1,–,300,–,–,–,–,–
O=C1c2ccccc2C(=O)N1Cc1ccccc1,116,–,–,–,–,–,–
O=c1c2cc(F)ccc2nc(-n2cncn2)n1-c1ccc(Cl)cc1Cl,192,–,-10.3,–,–,-10.7,–
C=C1CCC1,-135,42.2,–,–,–,–,–
c1ccc(CCCCc2ccccc2)cc1,52.5,317,–,–,–,–,–
OCN(CO)c1nc(N(CO)CO)nc(N(CO)CO)n1,137,–,–,–,–,–,–
CCC(=O)CC(C)C,–,135,–,–,–,–,–
COC(=O)C(=O)OC,54.3,164,0.0584,–,–,–,–
CCCCCC(O)CCCCC,25,228,–,–,–,–,–
CCOC(=O)C(C#N)=Cc1ccccc1,51,–,–,–,–,–,–
CCCCCc1ccc(O)cc1,23,250,–,–,–,–,–
C=C(C)c1ccc(O)cc1,–,–,–,not readily biodegradable,–,–,–
CCCCC1CCCC1,-108,157,0.602,–,–,–,–
CCc1cc(C)c(C)cc1C,-13.5,213,–,–,–,–,–
Clc1ccccc1-c1ccccc1Cl,61.5,–,-2.56,not readily biodegradable,3.92,-3.64,7.18
N#CCCCCCCC#N,-3.5,–,–,–,–,–,–
Nc1c(Br)cc2c(c1Br)Cc1ccccc1-2,–,–,–,not readily biodegradable,–,–,–
COC(=O)c1ccc(OC)cc1,49,256,–,–,–,–,–
COC(=O)C(C)Oc1ccc(Oc2ccc(Cl)cc2Cl)cc1 (centres undefined),40,–,-5.46,readily biodegradable,4.2,–,–
N#Cc1ccc2[nH]ccc2c1,107,–,–,–,–,–,–
CCCC(C)=O,-76.9,102,1.55,–,–,-4.08,3.19
CC(C)CC(C)CC(O)CC(C)C (centres undefined),–,225,–,–,–,–,–
FC(F)(F)C(F)(Cl)C(F)(Cl)C(F)(F)F (centres undefined),-68,63,–,–,–,–,–

Structure (SMILES),melting point [°C],boiling point [°C],log10 vapour pressure (mmHg),ready biodegradability,log10 Koc (L/kg),log10 Henry constant (atm·m³/mol),log10 Koa
Cc1ccccc1C(C)C,-71.5,178,0.176,not readily biodegradable,–,–,–
C[Si](C)(C)CBr,–,116,–,–,–,–,–
Brc1c(Br)c(Br)c(-c2c(Br)c(Br)c(Br)c(Br)c2Br)c(Br)c1Br,375,–,-9.4,not readily biodegradable,–,–,–
O=C(Cl)c1ccc2ccccc2c1,51,305,–,–,–,–,–
CC(C)[C@@H]1CC[C@@H](C)CC1=O,-6,207,–,–,–,–,–
CCCCC/C=C\C/C=C\CCCCCCCC(=O)OC,-35,–,-5.44,–,–,–,–
NCCNCCO,-38,239,–,not readily biodegradable,–,–,–
c1ccc2cc3c(ccc4cc5ccccc5cc43)cc2c1,257,–,–,–,–,–,–
COc1cc(NC(=O)C(N=Nc2ccc(-c3ccc(N=NC(C(C)=O)C(=O)Nc4cc(OC)c(Cl)cc4OC)c(Cl)c3)cc2Cl)C(C)=O)c(OC)cc1Cl (centres undefined),–,–,–,not readily biodegradable,–,–,–
C#CCCCC#C,-85,112,–,–,–,–,–
NS(=O)(=O)c1cc2c(cc1Cl)NC(CSCC(F)(F)F)NS2(=O)=O (centres undefined),206,–,–,–,–,–,–
CCN(CC)CCOC(=O)C(O)(c1ccccc1)c1ccccc1.Cl,178,–,–,–,–,–,–
COC(=O)C1(S(=O)(=O)c2ccccc2)CCC1,108,–,–,–,–,–,–
Nc1nc(N)nc(N)n1,–,–,-9.44,not readily biodegradable,–,–,–
CCCCCCCCCCCCCCCCCCCc1ccccc1,40,419,–,–,–,–,–
Cc1cn([C@H]2CC[C@@H](CO)O2)c(=O)[nH]c1=O,156,–,–,–,–,–,–
Oc1ccc(Cl)cc1Cc1cc(Cl)ccc1O,178,–,-10,not readily biodegradable,–,–,–
Cc1c(Cl)c(=O)oc2cc(OP(=O)(OCCCl)OCCCl)ccc12,91,–,–,–,–,–,–
Clc1cccc2ncccc12,45,256,–,–,–,–,–
CC(Cl)c1ccccc1 (centres undefined),–,–,-0.187,–,–,–,–
CCCC(=O)c1c(C)cc(C)c(C2CC(=O)C(C(CC)=NOCC)=C(O)C2)c1C (centres undefined),80.8,–,-8.12,–,–,–,–

# Same assay, conditions: fish
Structure (SMILES),log10 BCF,log10 biotransformation half-life (days)
Cc1cc(-c2ccc(N)c(C)c2)ccc1N,1.67,–
Clc1ccc(Cl)c(-c2ccc(Cl)c(Cl)c2)c1,5.08,2.65
O=C(O)C1CC=CCC1C(=O)O (centres undefined),0.3,-0.57
C=C[C@@]1(C)CC[C@H]2C(=CC[C@@H]3[C@]2(C)CCC[C@@]3(C)C(=O)O)C1,1.63,–
CC(C)(C)c1cc(-c2ccccc2)cc(C(C)(C)C)c1O,3.78,1.16
Brc1c(Br)c(Br)c(-c2c(Br)c(Br)c(Br)c(Br)c2Br)c(Br)c1Br,5.19,–
NCCNCCO,0.46,–
Nc1nc(N)nc(N)n1,0.58,–
Oc1ccc(Cl)cc1Cc1cc(Cl)ccc1O,2.28,-0.51
